Measurements taken from patent US9676715B2, “Bis-indolic derivatives, a process for preparing the same and their uses as a drug” (UNIVERSITE JOSEPH FOURIER, priority 2011, dated 2017).
pIC50: −log10 of the molar value. In brackets after ≈: the same amount, converted by molar mass.

Experiments:
E. faecalis ATCC 29212 = test: MIC, microdilution method (9.1); format: cell-based, Enterococcus faecalis; details: Enterococcus faecalis, ATCC29212, 18 h, read-out: MIC
Summary of the method: (§1)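 Antibacterial activity was determined by the microdilution technique recommended in CLSI document M07-A8, at 37° C. in ambient air with Mueller Hinton medium and a final bacterial load of 5×10^5 CFU/ml.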

S. pneumoniae ATCC 6303 = test: MIC, microdilution method (9.1); format: cell-based, Streptococcus pneumoniae; details: Streptococcus pneumoniae, ATCC6303, 10% sheep blood, 5% CO2, 18 h, read-out: MIC
Summary of the method: (§2)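 CLSI broth microdilution in Mueller Hinton broth, final inoculum 5×10^5 CFU/ml, with two-fold compound dilutions (0.50-128 mg/L final). Incubation at 37° C in ambient air, or 5% CO2 with 10% sheep blood for fastidious species.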

[1] = system: Serratia marcescens CIP 103551; test: MIC, microdilution method (9.1); format: cell-based; details: CIP103551, 18 h
Summary of the method: as §1

[2] = system: Pseudomonas aeruginosa CIP 5933; test: MIC, microdilution method (9.1); format: cell-based; details: CIP5933, 18 h, read-out: MIC
Summary of the method: as §1

[3] = system: Acinetobacter baumanii ATCC 19606; test: MIC, microdilution method (9.1); format: cell-based; details: Acinetobacter baumannii, ATCC19606, 18 h, read-out: MIC
Summary of the method: as §1

[4] = system: Enterobacter cloacae ATCC13047; test: MIC, microdilution method (9.1); format: cell-based; details: 18 h
Summary of the method: as §1

[5] = system: Bacillus subtilis CIP 5262; test: MIC, microdilution method (9.1); format: cell-based; details: CIP5262, 18 h, read-out: MIC
Summary of the method: as §1

[6] = system: Haemophilus influenzae ATCC 49766; test: MIC, microdilution method (9.1); format: cell-based; details: ATCC49766; Haemophilus influenzae ATCC 49766; 10% sheep blood, 5% CO2; 18 h; read-out: MIC
Summary of the method: as §2

[7] = system: Escherichia coli ATCC 25922; test: MIC, microdilution method (9.1); format: cell-based; details: ATCC25922, 18 h
Summary of the method: as §1

S. pneumoniae ATCC 49619 = test: MIC, microdilution method (9.1); format: cell-based; details: Streptococcus pneumoniae, ATCC49619, 10% sheep blood, 5% CO2, 18 h
Summary of the method: as §2

[8] = system: Listeria innocua CIP 80.11; test: MIC, microdilution method (9.1); format: cell-based; details: CIP80, 18 h, read-out: MIC
Summary of the method: as §1

[9] = system: Klebsiella pneumoniae API ATCC 35657; test: MIC, microdilution method (9.1); format: cell-based; details: ATCC35657, 18 h, read-out: MIC
Summary of the method: as §1

E. faecium CIP 54.32 = test: MIC, microdilution method (9.1); format: cell-based, Enterococcus faecium; details: Enterococcus faecium, CIP54, 18 h, read-out: MIC
Summary of the method: as §1

S. mitis CIP 103335 = test: MIC, microdilution method (9.1); format: cell-based, Streptococcus mitis; details: Streptococcus mitis, CIP103335, 18 h, read-out: MIC
Summary of the method: as §1

[10] = system: S. agalactiae (group B) ATCC 12400; test: MIC, microdilution method (9.1); format: cell-based, Streptococcus agalactiae; details: Streptococcus agalactiae, ATCC12400, 18 h, read-out: MIC
Summary of the method: as §1

[11] = system: S. pyogenes (group A) CIP 104226; test: MIC, microdilution method (9.1); format: cell-based, Streptococcus pyogenes; details: Streptococcus pyogenes, CIP104226, 18 h, read-out: MIC
Summary of the method: as §1

S. aureus ATCC 6538 = test: MIC, microdilution method (9.1); format: cell-based, Staphylococcus aureus; details: Staphylococcus aureus, ATCC6538, read after 18 h, read-out: MIC
Summary of the method: as §1

[12] = system: S. aureus ATCC 33592 (MRSA); test: MIC, microdilution method (9.1); format: cell-based, Staphylococcus aureus; details: Staphylococcus aureus, read after 18 h, read-out: MIC
Summary of the method: as §1

S. aureus ATCC 29213 = test: MIC, microdilution method (9.1); format: cell-based, Staphylococcus aureus; details: Staphylococcus aureus, ATCC29213, read after 18 h, read-out: MIC
Summary of the method: as §1

[13] = system: S. aureus CIP 65.25 (MRSA); test: MIC, microdilution method (9.1); format: cell-based, Staphylococcus aureus; details: Staphylococcus aureus, read after 18 h, read-out: MIC
Summary of the method: as §1

S. aureus CIP 103428 = test: MIC, microdilution method (9.1); format: cell-based, Staphylococcus aureus; details: Staphylococcus aureus, CIP103428, read after 18 h, read-out: MIC
Summary of the method: as §1

S. aureus SA-1199B = test: MIC, microdilution method (9.1); format: cell-based, Staphylococcus aureus; details: Staphylococcus aureus, SA1199B, 18 h
Summary of the method: as §1

S. aureus CIP 65.6 = test: MIC, microdilution method (9.1); format: cell-based, Staphylococcus aureus; details: Staphylococcus aureus, CIP65, read after 18 h, read-out: MIC
Summary of the method: as §1

[14] = system: S. aureus ATCC 106414 (VISA); test: MIC, microdilution method (9.1); format: cell-based, Staphylococcus aureus; details: Staphylococcus aureus, read after 18 h, read-out: MIC
Summary of the method: as §1

S. aureus ATCC 25923 = test: MIC, microdilution method (9.1); format: cell-based, Staphylococcus aureus; details: Staphylococcus aureus, ATCC25923, read after 18 h, read-out: MIC
Summary of the method: as §1

S. aureus ATCC 9144 = test: MIC, microdilution method (9.1); format: cell-based, Staphylococcus aureus; details: Staphylococcus aureus, ATCC9144, read after 18 h, read-out: MIC
Summary of the method: as §1

[15] = system: S. epidermidis ATCC 12228; test: MIC, microdilution method (9.1); format: cell-based, Staphylococcus epidermidis; details: Staphylococcus epidermidis, ATCC12228, read after 18 h, read-out: MIC
Summary of the method: as §1

[16] = system: HCT116 (human colon tumor); test: In vitro cytotoxicity; format: cell-based; details: HCT-116, HCT116, from 100 μM to 0.005 μM in DMSO, duplicate

Row | SMILES | MIC (E. faecalis ATCC 29212) [µg/mL] | MIC (S. pneumoniae ATCC 6303) [µg/mL] | MIC [1] [µg/mL] | MIC [2] [µg/mL] | MIC [3] [µg/mL] | MIC [4] [µg/mL] | MIC [7] [µg/mL] | MIC [9] [µg/mL] | MIC (S. aureus ATCC 6538) [µg/mL] | MIC [12] [µg/mL] | MIC (S. aureus ATCC 29213) [µg/mL] | MIC [13] [µg/mL] | MIC (S. aureus CIP 103428) [µg/mL] | MIC (S. aureus CIP 65.6) [µg/mL] | MIC [14] [µg/mL] | MIC (S. aureus ATCC 25923) [µg/mL] | MIC (S. aureus ATCC 9144) [µg/mL] | MIC [15] [µg/mL] | pIC50 ([16]; first value) | pIC50 ([16]; second value) | further results
1 | Cn1cc(C(=O)NC(CNC(=O)OC(C)(C)C)c2c[nH]c3ccc(Br)cc23)c2cc(Br)ccc21 (stereo not drawn) [Compound 7, tert-Butyl (2-(5-bromo-1-methyl-1H-indole-3-carboxamido)-2-(5-bromo-1H-indol-3-yl)ethyl) carbamate] | > 128 | > 128 | > 128 | > 128 | > 128 | > 128 | > 128 | > 128 | > 128 | > 128 | > 128 | > 128 | > 128 | > 128 | > 128 | > 128 | > 128 | > 128 | 5.00 | 4.88 | MIC [5]: > 128 µg/mL; MIC [6]: > 128 µg/mL; MIC (S. pneumoniae ATCC 49619): > 128 µg/mL; MIC [8]: > 128 µg/mL; MIC (E. faecium CIP 54.32): > 128 µg/mL; MIC (S. mitis CIP 103335): > 128 µg/mL; MIC [10]: > 128 µg/mL; MIC [11]: > 128 µg/mL; MIC (S. aureus SA-1199B): > 128 µg/mL
2 | CC(C)(C)OC(=O)NCC(NC(=O)c1c[nH]c2ccc(Br)cc12)c1c[nH]c2ccc(Br)cc12 (stereo not drawn) [Compound 3f, tert-Butyl(2-(5-bromo-1H-indol-3-yl)-2-(5-bromo-1H-indolyl-3-carboxamido)ethyl)carbamate] | > 128 | 32 (≈ 55.5 µM) | > 128 | > 128 | > 128 | > 128 | > 128 | > 128 | 1 (≈ 1.74 µM) | 2 (≈ 3.47 µM) | 1 (≈ 1.74 µM) | 2 (≈ 3.47 µM) | 1 (≈ 1.74 µM) | 1 (≈ 1.74 µM) | 2 (≈ 3.47 µM) | 1 (≈ 1.74 µM) | 1 (≈ 1.74 µM) | 1 (≈ 1.74 µM) | 5.28 | 5.30 | MIC [5]: 32 µg/mL (≈ 55.5 µM); MIC [6]: 32 µg/mL (≈ 55.5 µM); MIC (S. pneumoniae ATCC 49619): 32 µg/mL (≈ 55.5 µM); MIC [8]: > 128 µg/mL; MIC (E. faecium CIP 54.32): > 128 µg/mL; MIC (S. mitis CIP 103335): 64 µg/mL (≈ 111 µM); MIC [10]: 32 µg/mL (≈ 55.5 µM); MIC [11]: 32 µg/mL (≈ 55.5 µM); MIC (S. aureus SA-1199B): 2 µg/mL (≈ 3.47 µM)
3 | CC(NC(=O)c1c[nH]c2ccc(Br)cc12)c1c[nH]c2ccc(Br)cc12 (stereo not drawn) [Compound 4, 5-Bromo-N-(1-(5-bromo-1H-indol-3-yl)ethyl)-1H-indole-3-carboxamide] | – | – | > 128 | > 128 | > 128 | > 128 | > 128 | > 128 | 2 (≈ 4.34 µM) | 2 (≈ 4.34 µM) | 2 (≈ 4.34 µM) | 2 (≈ 4.34 µM) | 2 (≈ 4.34 µM) | 2 (≈ 4.34 µM) | 2 (≈ 4.34 µM) | 2 (≈ 4.34 µM) | 2 (≈ 4.34 µM) | 2 (≈ 4.34 µM) | 5.19 | 5.00 | MIC (S. aureus SA-1199B): 2 µg/mL (≈ 4.34 µM)
4 | NCCCCNC(=O)C(NC(=O)c1c[nH]c2ccc(Br)cc12)c1c[nH]c2ccc(Br)cc12 (stereo not drawn) [Compound 16, N-(2-((4-Aminobutyl)amino)-1-(5-bromo-1H-indol-3-yl)-2-oxoethyl)-5-bromo-1H-indole-3-carboxamide] | > 128 | > 128 | > 32 | 32 (≈ 57 µM) | > 32 | 16 (≈ 28.5 µM) | 16 (≈ 28.5 µM) | > 32 | 8 (≈ 14.3 µM) | 8 (≈ 14.3 µM) | 8 (≈ 14.3 µM) | 8 (≈ 14.3 µM) | 8 (≈ 14.3 µM) | 8 (≈ 14.3 µM) | 8 (≈ 14.3 µM) | 8 (≈ 14.3 µM) | 8 (≈ 14.3 µM) | 8 (≈ 14.3 µM) | 4.28 | 4.37 | MIC [5]: > 128 µg/mL; MIC [6]: > 128 µg/mL; MIC (S. pneumoniae ATCC 49619): > 128 µg/mL; MIC [8]: > 128 µg/mL; MIC (E. faecium CIP 54.32): > 128 µg/mL; MIC (S. mitis CIP 103335): > 128 µg/mL; MIC [10]: > 128 µg/mL; MIC [11]: > 128 µg/mL
